Structures can show the parent of a compound that is named as a salt. Where two headings read alike, the source gives them in different places.
Legend:
[1] = target: 5-HT6 receptor (Homo sapiens, UniProt P50406); test: 5-HT6 receptor binding
[2] = Food intake, body weight and plasma biomarkers in DIO (diet-induced obese) rats; type: in vivo; details: DIO rats, 3, 10 mg/kg bid, two weeks
[3] = Novel object recognition test; type: in vivo, C57Bl/6J mice; details: for effect on recognition index / object recognition compared to vehicle: 0.1 mg/kg i.p
Text: Male C57Bl/6J mice from Jackson Laboratories (Bar Harbor, Me.) were used. Mice were received at 6-weeks of age. Upon receipt, mice were assigned unique identification numbers (tail marked) and were group housed in polycarbonate cages with filter tops. All animals remained housed in groups of four during the remainder of the study. All mice were acclimated to the colony room for at least two weeks prior to testing and were subsequently tested at an average age of 8 weeks of age. During the period of acclimation, mice were examined on a regular basis, handled, and weighed to assure adequate health and suitability. Mice were maintained on a 12/12 light/dark cycle with the light on at 6:00 a.m. The room temperature was maintained between 20 and 23° C. with a relative humidity maintained between 30% and 70%. Chow and water were provided ad libitum for the duration of the study. In each test, animals were randomly assigned across treatment groups.
The pH at the 10 mg/kg was around 5.5.
Rolipram, also dissolved in 10% DMSO was only administered 20 min prior to training on Day 2.
On Day 1, mice were habituated to a circular open field environment (d=18 in, h=15 cm) for one hour in cage groups of four. Each Arena was constructed out of acrylic that was painted black to block reflection. On day 2, mice were placed back into the same arena for a training trial and allowed to explore a set of two identical objects placed equidistance apart from both each other and the arena walls. Individual mice were trained for a total of 15 minutes and then placed back into their home cages. On Day 3, mice were placed back into the same arena in the presence of both the familiar (previously explored) and a novel object. The spatial positions of the familiar and novel object (i.e. left-right sides) were counterbalanced between subjects. The difference in time spent exploring each object during the test trial was used as an index of object recognition and memory retention. Each animals test trial was recorded and these tapes were observed and scored after test completion. The first 10 min of each session was scored and object recognition was computed using the formula: (Time spent with novel object*100)/(Total Time exploring both objects). Tissue Harvest
Data were analyzed by analysis of variance (ANOVA) followed by post-hoc comparisons with Fisher Tests when appropriate. An effect was considered significant if p<0.05. Data are represented as the mean and standard error to the mean.

[4] = target: T1, 5HT1A (Homo sapiens, UniProt P08908); test: Compound Binding Profiles: 5HT1A; details: read-out: 5HT1A binding class
T1 sequence (P08908 1-422): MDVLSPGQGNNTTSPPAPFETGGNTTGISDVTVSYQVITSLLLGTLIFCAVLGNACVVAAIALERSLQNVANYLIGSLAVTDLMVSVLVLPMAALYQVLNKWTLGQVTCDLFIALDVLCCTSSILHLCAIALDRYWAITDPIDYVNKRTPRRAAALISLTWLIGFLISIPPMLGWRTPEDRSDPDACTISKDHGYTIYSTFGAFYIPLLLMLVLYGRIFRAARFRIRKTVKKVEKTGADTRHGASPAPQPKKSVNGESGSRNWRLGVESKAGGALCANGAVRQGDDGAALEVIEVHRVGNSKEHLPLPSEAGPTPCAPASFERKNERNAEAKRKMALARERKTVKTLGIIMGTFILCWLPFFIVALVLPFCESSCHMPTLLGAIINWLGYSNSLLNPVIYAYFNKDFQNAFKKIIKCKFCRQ

[5] = target: α2; test: Compound Binding Profiles: α2
[6] = target: α1; test: Compound Binding Profiles: α1
[7] = target: T2, M1 (Homo sapiens, UniProt P11229); test: Compound Binding Profiles: M1
T2 sequence (P11229 1-460): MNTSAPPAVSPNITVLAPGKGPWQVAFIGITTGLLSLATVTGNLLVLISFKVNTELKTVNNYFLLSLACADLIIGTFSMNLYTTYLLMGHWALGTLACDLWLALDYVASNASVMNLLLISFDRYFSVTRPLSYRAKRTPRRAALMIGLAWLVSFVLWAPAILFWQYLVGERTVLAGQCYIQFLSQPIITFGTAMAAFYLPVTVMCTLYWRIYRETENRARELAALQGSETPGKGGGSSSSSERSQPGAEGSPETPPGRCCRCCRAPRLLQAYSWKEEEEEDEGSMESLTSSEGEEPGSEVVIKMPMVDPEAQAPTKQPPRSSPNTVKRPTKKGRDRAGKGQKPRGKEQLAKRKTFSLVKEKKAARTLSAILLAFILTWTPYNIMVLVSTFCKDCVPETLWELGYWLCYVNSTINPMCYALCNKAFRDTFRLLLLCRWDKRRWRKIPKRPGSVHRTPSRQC

[8] = target: D2 (Homo sapiens, UniProt P14416); test: Compound Binding Profiles: D2; details: * = Estimated IC50
[9] = target: D3 (Homo sapiens, UniProt P35462); test: Compound Binding Profiles: D3
[10] = target: D1 (Homo sapiens, UniProt P21728); test: Compound Binding Profiles: D1; details: read-out: D1 binding class
[11] = target: T3, D4 (Homo sapiens, UniProt P21917); test: Compound Binding Profiles: D4; details: read-out: D4 binding class
T3 sequence (P21917 1-419): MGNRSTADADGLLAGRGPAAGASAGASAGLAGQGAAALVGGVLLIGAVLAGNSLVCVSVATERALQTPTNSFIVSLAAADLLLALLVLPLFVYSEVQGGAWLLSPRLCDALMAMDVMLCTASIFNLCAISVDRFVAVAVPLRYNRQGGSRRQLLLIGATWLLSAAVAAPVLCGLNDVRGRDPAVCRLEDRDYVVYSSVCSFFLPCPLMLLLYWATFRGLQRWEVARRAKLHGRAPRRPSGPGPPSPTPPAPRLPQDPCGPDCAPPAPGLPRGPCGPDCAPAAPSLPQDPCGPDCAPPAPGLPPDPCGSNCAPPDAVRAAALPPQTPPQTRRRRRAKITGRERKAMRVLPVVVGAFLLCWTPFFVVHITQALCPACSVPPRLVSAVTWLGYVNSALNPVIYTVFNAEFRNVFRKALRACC

[12] = target: H1 (Homo sapiens, UniProt P35367); test: Compound Binding Profiles: H1; details: * = Estimated IC50
[13] = target: T4, 5HT2C (Homo sapiens, UniProt P28335); test: Compound Binding Profiles: 5HT2C
T4 sequence (P28335 33-458): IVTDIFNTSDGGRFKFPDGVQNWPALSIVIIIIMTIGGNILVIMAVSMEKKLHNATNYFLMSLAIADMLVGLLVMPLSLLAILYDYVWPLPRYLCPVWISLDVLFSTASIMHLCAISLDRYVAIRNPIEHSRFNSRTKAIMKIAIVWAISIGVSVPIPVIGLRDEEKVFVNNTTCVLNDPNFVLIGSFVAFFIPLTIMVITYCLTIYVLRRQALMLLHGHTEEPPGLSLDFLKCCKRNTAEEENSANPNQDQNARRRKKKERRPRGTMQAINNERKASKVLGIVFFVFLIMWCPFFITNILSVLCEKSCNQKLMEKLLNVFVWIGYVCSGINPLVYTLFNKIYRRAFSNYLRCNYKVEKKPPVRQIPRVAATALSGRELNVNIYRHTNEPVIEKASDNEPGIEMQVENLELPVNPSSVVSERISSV

[14] = target: 5HT2A (Homo sapiens, UniProt P28223); test: Compound Binding Profiles: 5HT2A
[15] = * = Estimated IC50, hydrochloride

5-HT6 receptor, sequence (P50406 whole entry): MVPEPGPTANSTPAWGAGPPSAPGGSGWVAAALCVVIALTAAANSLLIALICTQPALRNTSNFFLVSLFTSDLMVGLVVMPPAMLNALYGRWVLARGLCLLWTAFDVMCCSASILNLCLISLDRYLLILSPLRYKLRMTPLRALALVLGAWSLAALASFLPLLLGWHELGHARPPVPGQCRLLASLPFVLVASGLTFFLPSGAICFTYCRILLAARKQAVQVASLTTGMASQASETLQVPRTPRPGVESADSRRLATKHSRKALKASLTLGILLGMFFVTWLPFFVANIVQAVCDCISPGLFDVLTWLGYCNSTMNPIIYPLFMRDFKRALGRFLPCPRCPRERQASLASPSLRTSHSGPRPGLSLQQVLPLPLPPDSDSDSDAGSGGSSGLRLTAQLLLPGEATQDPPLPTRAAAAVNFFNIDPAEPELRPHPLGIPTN
H1, sequence (P35367 whole entry): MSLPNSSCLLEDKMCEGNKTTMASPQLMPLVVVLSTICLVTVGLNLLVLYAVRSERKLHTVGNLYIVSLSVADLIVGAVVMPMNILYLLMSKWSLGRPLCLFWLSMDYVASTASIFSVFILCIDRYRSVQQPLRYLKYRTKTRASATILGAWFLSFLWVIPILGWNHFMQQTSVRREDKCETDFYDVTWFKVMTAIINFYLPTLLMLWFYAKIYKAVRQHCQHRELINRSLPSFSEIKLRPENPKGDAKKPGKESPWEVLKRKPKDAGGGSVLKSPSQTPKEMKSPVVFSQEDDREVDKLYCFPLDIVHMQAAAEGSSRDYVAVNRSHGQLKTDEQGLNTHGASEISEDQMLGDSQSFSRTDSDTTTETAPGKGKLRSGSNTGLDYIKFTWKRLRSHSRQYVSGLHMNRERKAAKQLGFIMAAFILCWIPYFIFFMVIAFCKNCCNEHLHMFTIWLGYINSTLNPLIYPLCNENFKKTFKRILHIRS
D2, sequence (P14416 whole entry): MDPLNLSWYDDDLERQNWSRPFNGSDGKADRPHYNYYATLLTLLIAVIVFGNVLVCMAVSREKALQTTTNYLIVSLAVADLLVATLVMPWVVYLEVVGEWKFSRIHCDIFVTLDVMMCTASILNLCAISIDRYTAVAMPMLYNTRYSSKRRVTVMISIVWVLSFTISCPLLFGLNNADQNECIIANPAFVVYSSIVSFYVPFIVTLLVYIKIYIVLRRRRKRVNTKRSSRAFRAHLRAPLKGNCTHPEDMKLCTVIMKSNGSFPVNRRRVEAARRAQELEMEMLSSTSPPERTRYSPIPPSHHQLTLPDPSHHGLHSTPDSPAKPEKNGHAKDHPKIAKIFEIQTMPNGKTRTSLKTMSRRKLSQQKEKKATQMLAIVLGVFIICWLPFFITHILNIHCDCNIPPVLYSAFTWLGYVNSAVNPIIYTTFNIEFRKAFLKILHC
D3, sequence (P35462 whole entry): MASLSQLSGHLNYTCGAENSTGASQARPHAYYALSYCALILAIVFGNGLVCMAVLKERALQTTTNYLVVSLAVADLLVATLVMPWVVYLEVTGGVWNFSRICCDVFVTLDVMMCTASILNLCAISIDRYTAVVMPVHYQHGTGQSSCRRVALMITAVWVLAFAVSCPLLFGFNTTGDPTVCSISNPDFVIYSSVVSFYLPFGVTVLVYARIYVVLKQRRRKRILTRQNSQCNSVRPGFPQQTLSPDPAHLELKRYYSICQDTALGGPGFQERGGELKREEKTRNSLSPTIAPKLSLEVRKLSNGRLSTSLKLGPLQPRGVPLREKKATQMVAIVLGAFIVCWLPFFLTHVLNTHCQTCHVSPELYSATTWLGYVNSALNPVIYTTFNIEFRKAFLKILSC
D1, sequence (P21728 whole entry): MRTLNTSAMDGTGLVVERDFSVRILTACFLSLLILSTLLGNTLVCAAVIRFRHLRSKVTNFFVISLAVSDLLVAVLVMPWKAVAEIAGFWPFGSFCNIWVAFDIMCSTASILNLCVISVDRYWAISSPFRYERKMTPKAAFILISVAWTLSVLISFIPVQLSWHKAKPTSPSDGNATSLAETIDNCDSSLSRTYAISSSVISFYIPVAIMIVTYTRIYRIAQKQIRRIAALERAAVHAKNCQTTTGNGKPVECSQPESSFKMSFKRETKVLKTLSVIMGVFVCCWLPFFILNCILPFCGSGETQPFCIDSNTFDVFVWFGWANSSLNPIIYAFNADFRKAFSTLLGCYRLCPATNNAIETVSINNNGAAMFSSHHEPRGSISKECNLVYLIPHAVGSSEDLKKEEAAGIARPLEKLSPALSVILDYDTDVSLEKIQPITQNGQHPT
5HT2A, sequence (P28223 whole entry, species assumed): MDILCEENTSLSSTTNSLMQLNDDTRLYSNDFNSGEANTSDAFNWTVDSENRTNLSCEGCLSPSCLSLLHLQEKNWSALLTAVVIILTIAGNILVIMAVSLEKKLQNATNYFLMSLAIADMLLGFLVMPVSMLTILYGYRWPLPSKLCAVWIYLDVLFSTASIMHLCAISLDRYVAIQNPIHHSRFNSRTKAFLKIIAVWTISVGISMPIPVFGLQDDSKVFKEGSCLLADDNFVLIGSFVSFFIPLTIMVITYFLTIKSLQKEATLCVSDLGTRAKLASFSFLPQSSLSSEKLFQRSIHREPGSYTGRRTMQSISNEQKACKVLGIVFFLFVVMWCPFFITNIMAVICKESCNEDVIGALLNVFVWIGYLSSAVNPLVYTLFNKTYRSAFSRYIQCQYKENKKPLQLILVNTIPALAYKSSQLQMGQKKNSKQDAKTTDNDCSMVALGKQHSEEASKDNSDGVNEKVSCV

COc1cc(Cl)cc(C(C)Nc2cc(N3CCNCC3)ccc2S(C)(=O)=O)c1OC (single isomer, unassigned; (+)) [(+) isomer, [1-(5-Chloro-2,3-dimethoxy-phenyl)-ethyl]-(2-methanesulfonyl-5-piperazin-1-yl-phenyl)-amine hydrochloride]
Ki ([1]; read-out: 5-HT6 Ki): 18 nM

COc1cc(Cl)cc(C(C)Nc2cc(N3CCNCC3)ccc2S(C)(=O)=O)c1OC (single isomer, unassigned; (-)) [(−) isomer, [1-(5-Chloro-2,3-dimethoxy-phenyl)-ethyl]-(2-methanesulfonyl-5-piperazin-1-yl-phenyl)-amine hydrochloride]
Ki ([1]; 5-HT6 Ki): 4.5 nM

COc1cc(OC)cc(C(C)Nc2cc(N3CCNCC3)ccc2S(C)(=O)=O)c1.Cl (stereo not shown) [Compound D]
body weight [2]: significant decrease | food intake [2]: significant decrease | plasma level of Insulin [2]: reduction | plasma level of Leptin [2]: reduction | plasma level of NEFA [2]: reduction | plasma level of triglycerides [2]: reduction

COc1cc(OC)cc(C(C)Nc2cc(N3CCNCC3)ccc2C(=O)C(F)(F)F)c1 (stereo not shown) [Compound C, 1-(2-(1-(3,5-Dimethoxyphenyl)ethylamino)-4-(piperazin-1-yl)phenyl)-2,2,2-trifluoroethanone hydrochloride]
Ki ([1]; read-out: 5-HT6 Ki): 34 nM

CC(Nc1cc(N2CCNCC2)ccc1S(C)(=O)=O)c1ccccc1 (stereo not shown) [Compound B, 2-(Methylsulfonyl)-N-(1-phenylethyl)-5-(piperazin-1-yl)benzenamine hydrochloride]
Ki ([1]; read-out: 5-HT6 Ki): 47 nM

COc1ccc(C2CNC(=O)C2)cc1OC1CCCC1 (stereo not shown) [Rolipram, reference compound]
Exploration time, Diff of Means Novel vs. Familiar ([3]; 0.1 mg/kg): 29.803 | time exploring novel object versus familiar object ([3]; 0.1 mg/kg): spent more time exploring novel object than the familiar object | effect on recognition index / object recognition compared to vehicle [3]: significant, positive effect on object recognition | effect on recognition index / object recognition compared to vehicle ([3]; listed as rolipram): significantly increased the recognition index | Memory index, Mean ([3]; 0.1 mg/kg, 10 min test): 71.670 | Exploration time, Mean ([3]; 0.1 mg/kg, Familiar Object): 19.172 | Exploration time, Mean ([3]; 0.1 mg/kg, Novel Object): 48.975 | Exploration time, Diff of Means 10% DMSO vs. treatment ([3]; within Familiar, 0.1 mg/kg): 4.807 | Exploration time, Diff of Means treatment vs. 10% DMSO ([3]; within Novel, 0.1 mg/kg): 17.991

O=C1Cc2cc(CCN3CCN(c4nsc5ccccc45)CC3)c(Cl)cc2N1 [Ziprasidome, reference compound]
Ki [4]: < 10 nM | Ki ([5]; read-out: α2 binding class): 100 to 1000 nM | Ki ([6]; read-out: α1 binding class): 100 to 1000 nM | Ki ([7]; read-out: M1 binding class): < 10 nM | Ki ([1]; read-out: 5HT6 binding class): 11 to 100 nM

CC(Nc1cc(N2CCNCC2)ccc1S(C)(=O)=O)c1cc(Cl)cc2c1OCCO2 (stereo not shown) [Cpd. E, N-(1-(6-Chloro-2,3-dihydrobenzo[b][1,4]dioxin-8-yl)ethyl)-2-(methylsulfonyl)-5-(piperazin-1-yl)benzenamine hydrochloride]
IC50 [8]: 613 nM | Ki [4]: 100 to 1000 nM | Ki [9]: 2.8 nM | Ki [10]: 100 to 1000 nM | Ki [11]: 100 to 1000 nM | IC50 [12]: 20000 nM | IC50 [5, 15]: 30000 nM | IC50 [6, 15]: 24000 nM | IC50 ([7]; * = Estimated IC50): 10000 nM | Ki [13]: 12 nM | Ki [14]: 150 nM | Ki ([1]; binding profile table, read-out: 5HT6 Ki): 1.3 nM

COc1cc(OC)cc(C(C)Nc2cc(N3CCNCC3)ccc2S(C)(=O)=O)c1.Cl (stereo not shown) [Compound D, N-(1-(3,5-Dimethoxyphenyl)ethyl-2-(methylsulfonyl)-5-(piperazin-1-yl)-benzeneamine hydrochloride]
Ki ([1]; read-out: 5-HT6 Ki): 27 nM

From patent US8604021B2, “Substituted arylamine compounds and methods of treatment” (priority 2005, dated 2013)
